Data on 14 compounds can be found in patent US20170253607A1, “LONG-ACTING HIV PROTEASE INHIBITOR” (Shionogi & Co., Ltd., priority 2014, published 2017).

Usually IC50 stands for the point on the concentration scale where inhibition reaches its midpoint. Low values mean higher potency, high ones lower potency.

For one data set, the target named is HIV-1 PR (Human immunodeficiency virus type 1 group M subtype B, UniProt P04585). Nature of the data set: HIV-protease inhibitory activity assay (FRET peptide substrate). To be noted: Test Example 1. Format: biochemical. The gist of the method:
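Compounds were preincubated with HIV-1 PR (0.83 ng) at room temperature in pH 4.8 NaAc buffer (0.5 M NaCl, EDTA, DTT, Tween 20), then HiLyte Fluor 488/QXL 520 FRET peptide (2 μmol/L final) was added for 60 min. Fluorescence was read at 485/535 nm, and IC50 was fitted by four-parameter logistic regression.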

Data set [1] is described as follows: Evaluation of total body clearance (CLtot), intravenous administration. Format: in vivo, Sprague-Dawley (SD). To be noted: rat (SD), intravenous administration 0.5-10 mg/kg; CLtot = dose/AUC. The procedure: Dose: Intravenous administration with designated doses was selected. (Doses were changed depending on compounds.) • 0.5-10 mg/kg (n=2-3) Preparation of dosing formulation: The dosing solution was prepared by dissolving in an adequate solvent. Administration method: The dosing solution was injected into the tail vein by a syringe with a needle Blood sampling: The blood was collected at the scheduled time and obtained the plasma. Plasma concentrations of the compound were measured by LC/MS/MS. Statistical analysis: Area under the plasma concentration-time curve (AUC) of the compound was calculated by pharmacokinetic analysis software, WinNonlin™ and CLtot was calculated by dividing the dose by AUC.

`COc1ccc(S(=O)(=O)N(CC(C)C)CC(O)C(Cc2ccc(NCC3=C(c4sc5c(c4C(=O)O)CC(C)(C)CC5)CCCCC3)cc2)NC(=O)OC2COC3(C)OCCC23)cc1` (stereo not shown) [Compound I-524] came in with an IC50 on HIV-1 PR of 5.03 nM. Besides, the rat_CLt in data set [1] is given as 0.23 mL/min/kg.
Compound `COc1ccc(S(=O)(=O)N(CC(C)C)CC(O)C(Cc2ccc(N(C)CC3=C(c4sc5c(c4C(=O)O)CC(C)(C)CC5)CCCCC3)cc2)NC(=O)OC2COC3(C)OCCC23)cc1` (stereo not shown) [Compound I-525] showed an IC50 against HIV-1 PR of 5.75 nM. Further, the rat_CLt in data set [1] turned out to be 0.127 mL/min/kg.
At HIV-1 PR, `COc1ccc(S(=O)(=O)N(CC(C)C)CC(O)C(Cc2ccc(NCc3ccc(C(F)(F)F)cc3-c3sc4c(c3C(=O)O)CC(C)(C)CC4)cc2)NC(=O)OC2COC3(C)OCCC23)cc1` (stereo not shown) [Compound I-526] had an IC50 of 6.47 nM. This compound had a rat_CLt in data set [1] of 0.632 mL/min/kg.
On the same counts, the results for `COc1ccc(S(=O)(=O)N(CC(C)C)CC(O)C(Cc2ccc(NCc3cocc3-c3sc4c(c3C(=O)O)CC(C)(C)CC4)cc2)NC(=O)OC2COC3(C)OCCC23)cc1` (stereo not shown) [Compound I-528] are 2.36 nM and 4.05 mL/min/kg.
With `COc1ccc(S(=O)(=O)N(CC(C)C)CC(O)C(Cc2ccc(NCc3ccc(-c4ccccc4-c4sc5c(c4C(=O)O)CC(C)(C)CC5)cc3)cc2)NC(=O)OC2COC3(C)OCCC23)cc1` (stereo not shown) [Compound I-530], the 50% inhibitory concentration (IC50) against HIV-1 PR was found to be 8.31 nM. This compound returned a rat_CLt in data set [1] of 1.57 mL/min/kg.
The compound `COc1ccc(S(=O)(=O)N(CC(C)C)CC(O)C(Cc2ccc(NCc3c(-c4sc5c(c4C(=O)O)CC(C)(C)CC5)ccc4ccccc34)cc2)NC(=O)OC2COC3(C)OCCC23)cc1` (stereo not shown) [Compound I-531] came in with an IC50 on HIV-1 PR of 6.98 nM. This compound also registered a rat_CLt in data set [1] of 0.0543 mL/min/kg.
On to `COc1ccc(S(=O)(=O)N(CC(C)C)CC(O)C(Cc2ccc(NCc3ccc(C)c(-c4sc5c(c4C(=O)O)CC(C)(C)CC5)c3)cc2)NC(=O)OC2COC3(C)OCCC23)cc1` (stereo not shown) [Compound I-532], for which the IC50 at HIV-1 PR stood at 4.14 nM. The same compound had a rat_CLt in data set [1] of 0.551 mL/min/kg.
`COc1ccc(S(=O)(=O)N(CC(C)C)CC(O)C(Cc2ccc(N(C)Cc3cccc(C(F)(F)F)c3-c3sc4c(c3C(=O)O)CC(C)(C)CC4)cc2)NC(=O)OC2COC3(C)OCCC23)cc1` (stereo not shown) [Compound I-537] had a half-maximal inhibitory concentration (IC50) against HIV-1 PR of 5.5 nM. The compound further had a rat_CLt in data set [1] of 0.328 mL/min/kg.
Compound `COc1ccc(S(=O)(=O)N(CC(C)C)CC(O)C(Cc2ccc(N(C)Cc3cc(N(C)C)ccc3-c3sc4c(c3C(=O)O)CC(C)(C)CC4)cc2)NC(=O)OC2COC3(C)OCCC23)cc1` (stereo not shown) [Compound I-538] came in with an IC50 at HIV-1 PR of 2.86 nM. Further, in data set [1], the rat_CLt was found to be 0.598 mL/min/kg.
In turn, `COc1ccc(S(=O)(=O)N(CC(C)C)CC(O)C(Cc2ccc(N(C)Cc3cc(N4CCCC4)ccc3-c3sc4c(c3C(=O)O)CC(C)(C)CC4)cc2)NC(=O)OC2COC3(C)OCCC23)cc1` (stereo not shown) [Compound I-539] gave a 50% inhibitory concentration (IC50) on HIV-1 PR of 2.91 nM. Further, the rat_CLt in data set [1] is 0.156 mL/min/kg.
For `COc1ccc(S(=O)(=O)N(CC(C)C)CC(O)C(Cc2ccc(N(C)Cc3ccc(C(F)(F)F)cc3-c3sc4c(c3C(=O)O)CC(C)(C)CC4)cc2)NC(=O)OC2COC3(C)OCCC23)cc1` (stereo not shown) [Compound I-540], the IC50 at HIV-1 PR is 27.8 nM. The compound also returned a rat_CLt in data set [1] of 1.5 mL/min/kg.
As for `COc1ccc(S(=O)(=O)N(CC(C)C)CC(O)C(Cc2ccc(NCc3cc(OC)c(OC)cc3C(=O)Nc3sc4c(c3C(=O)O)CC(C)(C)CC4)cc2)NC(=O)OC2COC3(C)OCCC23)cc1` (stereo not shown) [Compound I-541], at HIV-1 PR, the IC50 amounted to 2.34 nM. For the same compound, in data set [1], the rat_CLt amounted to 0.195 mL/min/kg.
Regarding `COc1ccc(S(=O)(=O)N(CC(C)C)CC(O)C(Cc2ccc(NCc3cc(C)ccc3-c3sc4c(c3C(=O)O)CC(C)(C)CC4)cc2)NC(=O)OC2COC3(C)OCCC23)cc1` (stereo not shown) [Compound I-545], the IC50 on HIV-1 PR stood at 1.85 nM. The same compound showed a rat_CLt in data set [1] of 1.15 mL/min/kg.
In the case of `COc1ccc(S(=O)(=O)N(CC(C)C)CC(O)C(Cc2ccc(NCc3cc(-c4sc5c(c4C(=O)O)CC(C)(C)CC5)ccc3C)cc2)NC(=O)OC2COC3(C)OCCC23)cc1` (stereo not shown) [Compound I-550], the half-maximal inhibitory concentration (IC50) at HIV-1 PR is 1.75 nM. This compound had a rat_CLt in data set [1] of 5.29 mL/min/kg.
